Data taken from US6331555A, “Treatment of platelet derived growth factor related disorders such as cancers” (priority 1999, dated 2001).

Assays:
C6 cells = assay: CTL generation in tumor-bearing rats (MLTC); format: in vivo, rat; settings: 8.4 mg/kg/day
Method: Wistar rats received SC implants of C6 cells on day 0. […] The control group was not treated after tumor implantation. On day 21, the animals were sacrificed and the spleens were removed for in vitro analyses. Splenocytes were stimulated with ConA, LPS, and alloantigen (DA rat spleen cells) as in the murine studies.
The spleen cells from Wistar rats were also assayed for the generation of C6-specific CTL in the MLTC and the results summarized in Table XXI. Spleen cells from tumor-bearing, untreated animals mounted a vigorous CTL response (35% specific lysis at E:T=100:1), while cells from non-tumor bearing control rats mounted a weak response (13% specific lysis at E:T=100:1). Similar to the studies in BALB/c mice, it appeared that the vehicle inhibited the generation of CTL in a 7-day culture.

[1] = Ex vivo conversion of A10 to B11 in human plasma
SF763 = assay: Xenograft in athymic mice; format: in vivo; settings: xenografted athymic mice
Method: (§1) Cell lines were grown in appropriate medium (see Appendix 1). Cells were harvested at or near confluency with 0.05% Trypsin-EDTA and pelleted at 450×g for 10 min. Pellets were resuspended in sterile PBS or media (without FBS) to a particular concentration and the cells were implanted into the hindflank of mice. Tumor growth was measured over 3 to 6 weeks using venier calipers. Tumor volumes were calculated as a product of length×width×height unless otherwise indicated. P values were calculated using the Students' t-test.
(§2) PDGF-R expression was measured qualitatively using a western blot.

SF767 = assay: Xenograft in athymic mice; format: in vivo; settings: xenografted athymic mice
Method: as §1, §2

[2] = tested on: 7TD1 (B-cell hybridoma) cells; assay: Survival, IP 7TD1 B-cell hybridoma in C57BL/6 mice; format: in vivo, mouse
Method: Cell lines were grown in the appropriate media as described in Appendix 1. Cells were harvested and washed in sterile PBS or medium without FBS, resuspended to a suitable concentration, and injected into the IP cavity of […] of the appropriate strain. Prior to implantation of 7TD1 cells, C57BL/6 mice were primed by IP injection of 0.5 mL Pristane. SKOV3T cells were implanted into athymic mice without Pristane priming. Mice were observed daily for the occurrence of ascites formation. Individual animals were sacrificed when they presented with a weight gain of 40%, or when the IP tumor burden began to cause undue stress and pain to the animal.
All animals in the control group died by day 9, while 3 of 8 animals in the A10-treated group survived past day 80.

spleen cells = assay: Normal immune function in mice bearing a primary tumor; format: in vivo, mouse; settings: 20 mg/kg/day
Excerpt: At the indicated times, animals were sacrificed, and the spleens were aseptically removed and placed into sterile medium. Spleens were processed into single cell suspensions by grinding between sterile frosted glass microscope slides. After a single wash to remove tissue debris, the spleen cells were resuspended in a hypotonic ammonium chloride buffer to lyse erythrocytes. Lymphocytes were washed and resuspended to the appropriate concentrations in complete medium, consisting of RPMI plus 10% heat-inactivated FBS, 2 mM glutamine, 50 μM β-mercaptoethanol, and penicillin-streptomycin. The responses of the lymphocytes were examined in the following assays according to accepted procedures (Current Protocols in Immunology. Coligan, J. E., Kruisbeek, A. M., Margulies, D. H., Shevach, E. M., Strober, W. (eds.) John Wiley and Sons, Inc., 1992).
The T-cell mitogen, ConA, and the T-cell independent B-cell mitogen, LPS, were added to 96-well round-bottom wells at the indicated concentrations. Lymphocytes from normal, vehicle-dosed, and drug-dosed animals were added at a final concentration of 2.5×10^5 /well. Cultures were usually set up in triplicate or quadruplicate. The plates were incubated at 37° C. in a humidified atmosphere containing 5% CO2 for the indicated times. Supernatants (approximately 100 μL) were carefully removed from the wells and stored at -80° C. for lymphokine and immunoglobulin analyses. To measure proliferation of the lymphocytes, 1 μCi of ^3 H-thymidine was added to each well, and the plates were incubated for 6 hr. The cultures were harvested onto glass fiber filters, and the incorporated radioactivity was quantitated by liquid scintillation counting (Betaplate, Wallac).
Lymphocytes from normal, vehicle-dosed, and drug-dosed animals were plated at 2.5×10^5 /well in round-bottom 96-well plates. Stimulator cells were then added at the same cell concentration. The stimulator cells consisted of syngeneic or allogeneic lymphocytes which had been treated with 50 μg/mL of mitomycin C for 30 min prior to the assay. The plates were incubated for 3 to 4 days, at which time supernatants were harvested and the cultures were pulsed as described for the mitogen assays.
Supernatants from mitogen and MLR cultures were assayed for IL-2 and IL-6 content by the ability to support the growth of factor-dependent cell lines. HT-2 cells (10^4 /well, IL-2-dependent) and 7TD1 cells (2×10^3 /well, IL-6-dependent) were plated in 96-well flat-bottom plates, in 50 μL/well. Supernatants were added in 50 μL/well, and the plates were incubated overnight (HT-2) or four days (7TD1). Cellular proliferation was determined in the MTT colorimetric assay (Appendix 3.1).
Flat bottom 96-well EIA plates were coated with goat anti-mouse Ig antibodies (Southern Biotechnology) overnight at 4° C. The plates were blocked by the addition of PBS+1% BSA. After washing with PBS, supernatants from murine mitogen and MLR cultures were added and incubated at room temperature for 1 hr. The plates were washed with PBS, then HRP-labeled goat anti-mouse Ig antibodies were added and incubated at room temperature for 1 hr. The plates were washed and developed by the addition of substrate (ABTS).
BALB/c mice received SC implants of syngeneic WEHI-164.13 fibrosarcoma cells on day 0. […] On day 17, the animals were sacrificed and their spleens were removed. The spleen cells were assayed in vitro for responses to alloantigens and mitogens.

[3] = Effects of A10 on body weight and organs; format: in vivo, mouse; settings: 20 mg/kg/day, 100 day period
Method: Vehicle control animals received IP administration of 100 μL PBTE:D5W (1:1, v:v) every day for 101 days, and untreated control animals received no treatments. There were eight animals in each group. Weights were measured on day 0 (one day prior to drug administration) and two times/week until experiment termination. The percent weight change was calculated as mean weight at each determination as compared to the mean weight on day 0.
However, after several weeks, the animals gained weight at a rate similar to untreated or vehicle-treated animals.

Cc1oncc1C(=O)Nc1ccc(C(F)(F)F)cc1 [Compound A10, 5-methylisoxazole-4 carboxylic acid-(4-trifluromethyl)-anilide]
CTL generation (C6 cells): did not overcome the inhibitory effect of the vehicle in immunocompetent rats | CTL activity (C6 cells; Tumor stimulus): 0 | time of complete conversion to B11 ([1]; 25° C., human plasma): ≤ 21 h | A10 remaining, co-incubation of B11 and A10 ([1]; fresh human plasma, after 21 hr): No A10 was detected after 21 hr | conversion to B11 in heat-inactivated plasma ([1]; human, 15 min at 60° C.): does not occur | In Vivo inhibition (SF763): 35% | In Vivo inhibition (SF767): 18% | survival ([2]; 15 mg/kg/day IP in DMSO): significantly increase the survival | animals surviving ([2]; 15 mg/kg/day IP in DMSO 30 days, past day 80): 3 of 8 | IL-2 production (spleen cells; Allo): 0 | IL-6 production (spleen cells; Allo): 0 | Ig production (spleen cells; Allo): 0 | IL-2 production (spleen cells; ConA): 0 | IL-6 production (spleen cells; ConA): 0 | Ig production (spleen cells; ConA): 0 | IL-2 production (spleen cells; LPS): 0 | IL-6 production (spleen cells; LPS): 0 | Ig production (spleen cells; LPS): 0 | IL-2 production (spleen cells; Tumor stimulus): 0 | IL-6 production (spleen cells; Tumor stimulus): 0 | Ig production (spleen cells; Tumor stimulus): 0 | mortality [3]: no mortality was observed
